Measured values as given in the supplement of paper PMC10307832.

Key:
Test in all cases: relative viability (nuclei count vs DMSO), 5 days (fraction); higher = more cells survive
NCI-H661 = test system: NCI-H661
Method in brief: (§1)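 Each reported value is a median over duplicate plates. It expresses relative viability: treated-well nuclei count divided by vehicle-well nuclei count. Lung cancer cell lines in 1536-well plates were dosed by pin tool a day after seeding, alone with one drug or with a fixed anchor-drug dose plus five library-drug doses (not always all listed) in √10 steps, and nuclei were counted after 5 days.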

NCI-H647 = test system: NCI-H647
Method in brief: as §1

LOU-NH91 = test system: LOU-NH91
Method in brief: as §1

NCI-H2126 = test system: NCI-H2126
Method in brief: as §1

NCI-H2085 = test system: NCI-H2085
Method in brief: as §1

NCI-H1975 = test system: NCI-H1975
Method in brief: as §1

HARA = test system: HARA
Method in brief: as §1

NCI-H1651 = test system: NCI-H1651
Method in brief: as §1

BEN = test system: BEN
Method in brief: as §1

CAL-12T = test system: CAL-12T
Method in brief: as §1

NCI-H1666 = test system: NCI-H1666
Method in brief: as §1

RERF-LC-KJ = test system: RERF-LC-KJ
Method in brief: as §1

LCLC-103H = test system: LCLC-103H
Method in brief: as §1

NCI-H1944 = test system: NCI-H1944
Method in brief: as §1

NCI-H520 = test system: NCI-H520
Method in brief: as §1

NCI-H596 = test system: NCI-H596
Method in brief: as §1

NCI-H1734 = test system: NCI-H1734
Method in brief: as §1

NCI-H460 = test system: NCI-H460
Method in brief: as §1

SW 900 = test system: SW 900
Method in brief: as §1

A-427 = test system: A-427
Method in brief: as §1

NCI-H838 = test system: NCI-H838
Method in brief: as §1

NCI-H727 = test system: NCI-H727
Method in brief: as §1

For `Cc1csc(=NC2CCCCC2)n1/N=C/c1ccc(O)c(O)c1O` [MIM1] + CC(=O)Nc1cccc(-n2c(=O)n(C3CC3)c(=O)c3c(Nc4ccc(I)cc4F)n(C)c(=O)c(C)c32)c1 [Trametinib] (partner 0.02 µM), the relative viability (NCI-H661; first compound 0.2 µM) was 0.607, the relative viability (NCI-H661; first compound 0.6325 µM) was 0.587 and the relative viability (NCI-H661; first compound 2 µM) was 0.554. It also gave a relative viability (NCI-H661; first compound 6.325 µM) of 0.406, a relative viability (NCI-H661; first compound 20 µM) of 0.348 and a relative viability (NCI-H647; first compound 0.2 µM) of 0.435. For the same molecule, the relative viability (NCI-H647; first compound 0.6325 µM) was 0.567, the relative viability (NCI-H647; first compound 2 µM) was 0.415 and the relative viability (NCI-H647; first compound 6.325 µM) was 0.413. For the same molecule, the relative viability (NCI-H647; first compound 20 µM) was 0.18, the relative viability (LOU-NH91; first compound 0.2 µM) was 0.795 and the relative viability (LOU-NH91; first compound 0.6325 µM) was 0.839. For the same molecule, the relative viability (LOU-NH91; first compound 2 µM) was 0.646, the relative viability (LOU-NH91; first compound 6.325 µM) was 0.7 and the relative viability (LOU-NH91; first compound 20 µM) was 0.349. It also gave a relative viability (NCI-H2126; first compound 0.2 µM) of 0.553, a relative viability (NCI-H2126; first compound 0.6325 µM) of 0.579 and a relative viability (NCI-H2126; first compound 2 µM) of 0.598. It also gave a relative viability (NCI-H2126; first compound 6.325 µM) of 0.503, a relative viability (NCI-H2126; first compound 20 µM) of 0.388 and a relative viability (NCI-H2085; first compound 0.2 µM) of 0.619. The relative viability (NCI-H2085; first compound 0.6325 µM) was 0.512, the relative viability (NCI-H2085; first compound 2 µM) was 0.62 and the relative viability (NCI-H2085; first compound 6.325 µM) was 0.436. For the same molecule, the relative viability (NCI-H2085; first compound 20 µM) was 0.406, the relative viability (NCI-H1975; first compound 0.2 µM) was 0.366 and the relative viability (NCI-H1975; first compound 0.6325 µM) was 0.372. The relative viability (NCI-H1975; first compound 2 µM) was 0.376, the relative viability (NCI-H1975; first compound 6.325 µM) was 0.208 and the relative viability (NCI-H1975; first compound 20 µM) was 0.123. For the same molecule, the relative viability (HARA; first compound 0.2 µM) was 0.707, the relative viability (HARA; first compound 0.6325 µM) was 0.608 and the relative viability (HARA; first compound 2 µM) was 0.641. For the same molecule, the relative viability (HARA; first compound 6.325 µM) was 0.216, the relative viability (HARA; first compound 20 µM) was 0.173 and the relative viability (NCI-H1651; first compound 0.2 µM) was 0.856. The relative viability (NCI-H1651; first compound 0.6325 µM) was 0.9, the relative viability (NCI-H1651; first compound 2 µM) was 0.866 and the relative viability (NCI-H1651; first compound 6.325 µM) was 0.728. The relative viability (NCI-H1651; first compound 20 µM) was 0.843, the relative viability (BEN; first compound 0.2 µM) was 1.22 and the relative viability (BEN; first compound 0.6325 µM) was 1.1. It also gave a relative viability (BEN; first compound 2 µM) of 1.03, a relative viability (BEN; first compound 6.325 µM) of 1.1 and a relative viability (BEN; first compound 20 µM) of 0.578. It also gave a relative viability (CAL-12T; first compound 0.2 µM) of 0.406, a relative viability (CAL-12T; first compound 0.6325 µM) of 0.378 and a relative viability (CAL-12T; first compound 2 µM) of 0.341. It also gave a relative viability (CAL-12T; first compound 6.325 µM) of 0.316, a relative viability (CAL-12T; first compound 20 µM) of 0.249 and a relative viability (NCI-H1666; first compound 0.2 µM) of 0.929. It also gave a relative viability (NCI-H1666; first compound 0.6325 µM) of 0.833, a relative viability (NCI-H1666; first compound 2 µM) of 0.847 and a relative viability (NCI-H1666; first compound 6.325 µM) of 0.826. The relative viability (NCI-H1666; first compound 20 µM) was 0.426, the relative viability (RERF-LC-KJ; first compound 0.2 µM) was 0.832 and the relative viability (RERF-LC-KJ; first compound 0.6325 µM) was 0.801. The relative viability (RERF-LC-KJ; first compound 2 µM) was 0.666, the relative viability (RERF-LC-KJ; first compound 6.325 µM) was 0.56 and the relative viability (RERF-LC-KJ; first compound 20 µM) was 0.3. The relative viability (LCLC-103H; first compound 0.2 µM) was 0.662, the relative viability (LCLC-103H; first compound 0.6325 µM) was 0.687 and the relative viability (LCLC-103H; first compound 2 µM) was 0.694. It also gave a relative viability (LCLC-103H; first compound 6.325 µM) of 0.669, a relative viability (LCLC-103H; first compound 20 µM) of 0.394 and a relative viability (NCI-H1944; first compound 0.2 µM) of 0.386. It also gave a relative viability (NCI-H1944; first compound 0.6325 µM) of 0.462, a relative viability (NCI-H1944; first compound 2 µM) of 0.307 and a relative viability (NCI-H1944; first compound 6.325 µM) of 0.364. For the same molecule, the relative viability (NCI-H1944; first compound 20 µM) was 0.265, the relative viability (NCI-H520; first compound 0.2 µM) was 0.625 and the relative viability (NCI-H520; first compound 0.6325 µM) was 0.707. For the same molecule, the relative viability (NCI-H520; first compound 2 µM) was 0.652, the relative viability (NCI-H520; first compound 6.325 µM) was 0.529 and the relative viability (NCI-H520; first compound 20 µM) was 0.289. It also gave a relative viability (NCI-H596; first compound 0.2 µM) of 0.702, a relative viability (NCI-H596; first compound 0.6325 µM) of 0.95 and a relative viability (NCI-H596; first compound 2 µM) of 0.745. The relative viability (NCI-H596; first compound 6.325 µM) was 0.667, the relative viability (NCI-H596; first compound 20 µM) was 0.56 and the relative viability (NCI-H1734; first compound 0.2 µM) was 0.786. For the same molecule, the relative viability (NCI-H1734; first compound 0.6325 µM) was 0.676, the relative viability (NCI-H1734; first compound 2 µM) was 0.607 and the relative viability (NCI-H1734; first compound 6.325 µM) was 0.583. For the same molecule, the relative viability (NCI-H1734; first compound 20 µM) was 0.183, the relative viability (NCI-H460; first compound 0.2 µM) was 0.103 and the relative viability (NCI-H460; first compound 0.6325 µM) was 0.136. The relative viability (NCI-H460; first compound 2 µM) was 0.118, the relative viability (NCI-H460; first compound 6.325 µM) was 0.0462 and the relative viability (NCI-H460; first compound 20 µM) was 0.0293. For the same molecule, the relative viability (SW 900; first compound 0.2 µM) was 0.831, the relative viability (SW 900; first compound 0.6325 µM) was 0.886 and the relative viability (SW 900; first compound 2 µM) was 0.718. It also gave a relative viability (SW 900; first compound 6.325 µM) of 0.196, a relative viability (SW 900; first compound 20 µM) of 0.21 and a relative viability (A-427; first compound 0.2 µM) of 0.758. The relative viability (A-427; first compound 0.6325 µM) was 0.737, the relative viability (A-427; first compound 2 µM) was 0.77 and the relative viability (A-427; first compound 6.325 µM) was 0.672. The relative viability (A-427; first compound 20 µM) was 0.37, the relative viability (NCI-H838; first compound 0.2 µM) was 0.463 and the relative viability (NCI-H838; first compound 0.6325 µM) was 0.572. For the same molecule, the relative viability (NCI-H838; first compound 2 µM) was 0.544, the relative viability (NCI-H838; first compound 6.325 µM) was 0.353 and the relative viability (NCI-H838; first compound 20 µM) was 0.178. The relative viability (NCI-H727; first compound 0.2 µM) was 0.371, the relative viability (NCI-H727; first compound 0.6325 µM) was 0.407 and the relative viability (NCI-H727; first compound 2 µM) was 0.393. For the same molecule, the relative viability (NCI-H727; first compound 6.325 µM) was 0.427 and the relative viability (NCI-H727; first compound 20 µM) was 0.383.
